Biological target: T1, CPGRP-S (camel short peptidoglycan recognition protein, PGRP-S) (Camelus dromedarius, UniProt Q9GK12)
T1 construct: gene PGLYRP1; native, purified from camel milk; full mature chain, residues 1-171, about 19-20 kDa; A-B and C-D contacts forming a linear polymer, 4 molecules in the asymmetric unit
Assay: X-ray crystallography (soaked crystals, […] A); SPR on immobilized protein also shows binding
Conditions: ternary complex with LPS at Site-1 (C-D contact); SA at Site-2 (A-B contact); crystals soaked in 70% reservoir solution and 30% ethanol
Source text: (camel short peptidoglycan recognition protein, PGRP-S) | SA is placed in the cleft at the A-B contact

T1 sequence (Q9GK12 23-193): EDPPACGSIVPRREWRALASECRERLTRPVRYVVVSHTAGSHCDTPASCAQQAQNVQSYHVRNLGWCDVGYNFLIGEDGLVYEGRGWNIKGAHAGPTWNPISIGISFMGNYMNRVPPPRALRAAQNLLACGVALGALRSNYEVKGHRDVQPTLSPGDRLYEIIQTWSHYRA

SMILES: CCCCCCCCCCCCCCCCCC(=O)O [SA, stearic acid]
- X-ray crystallography (soaked crystals, 2.8 A); SPR on immobilized protein also: SA is placed in the cleft at the A–B contact

Source: publication PMC3541179, “Structural Insights into the Dual Strategy of Recognition by Peptidoglycan Recognition Protein, PGRP-S: Structure of the Ternary Complex of PGRP-S with Lipopolysaccharide and Stearic Acid” (PLoS ONE, 2013)
